Results as given in US8299054B2, “Cyclic 11-beta hydroxysteroid dehydrogenase type 1 inhibitors” (Bristol-Myers Squibb Company, priority 2006, dated 2012).

Target: recombinant human 11beta-HSD1 (Homo sapiens, UniProt P28845)
Assay: 11β-HSD-1 SPA Enzyme Assay (Scintillation Proximity assay, microsomes of transfected HEK 293 EBNA cells)
Settings: not given

Sequence of recombinant human 11beta-HSD1 (P28845 whole entry): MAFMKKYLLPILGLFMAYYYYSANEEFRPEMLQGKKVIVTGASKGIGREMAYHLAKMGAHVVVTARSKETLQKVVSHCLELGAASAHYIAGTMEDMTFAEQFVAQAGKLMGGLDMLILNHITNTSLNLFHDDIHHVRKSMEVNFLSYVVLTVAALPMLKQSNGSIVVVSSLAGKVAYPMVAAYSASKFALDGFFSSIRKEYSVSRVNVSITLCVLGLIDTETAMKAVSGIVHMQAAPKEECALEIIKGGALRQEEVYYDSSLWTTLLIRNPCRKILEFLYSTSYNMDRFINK

**Q.** For `COC(=O)NC1CN(C(=O)CC2(c3ccc(F)cc3)C3CC4CC2CC(C3)O4)C1` (centres unmarked) [Example 235], which IC50 is on record?
**A.** The IC50 was 520 nM.

**Q.** With `O=C(CC1(c2ccc(F)cc2)C2CC3CC(C2)CC1C3)N1CC(Oc2ccccc2)C1` (centres unmarked) [Example 174] as the compound, how does the IC50 read?
**A.** The IC50 was 1 nM.

**Q.** For `O=C(CC1(c2ccccc2)C2CC3CC1CC(C2)C3O)N1CC(c2nnc3ccccn23)C1` (centres unmarked) [Example 35], which IC50 is on record?
**A.** Its IC50 is 636 nM.

**Q.** For `O=C(CC1(c2ccccc2)C2CC3CC1CC(C2)C3O)N1C[C@H](O)CO1` (single isomer, unassigned) [Example 270], which IC50 is on record?
**A.** Its IC50 is 16 nM.

**Q.** With `O=C(NCc1nnn[nH]1)OC1CN(C(=O)CC2(c3ccccc3)C3CC4CC2CC(C3)C4O)C1` (single isomer, unassigned) [Example 259] as the compound, how does the IC50 read?
**A.** Its IC50 is 75 nM.

**Q.** With `CN(CCO)C(=O)CC1(c2ccc(F)cc2)C2CC3CC(C2)CC1C3` (centres unmarked) [Example 304] as the compound, how does the IC50 read?
**A.** Its IC50 is 25 nM.

**Q.** For `O=C(NC1CCN(C(=O)CC2(c3ccc(F)cc3)C3CC4CC(C3)CC2C4)C1)OCc1ccccc1` (centres unmarked) [Example 305], which IC50 is on record?
**A.** The IC50 was 28 nM.

**Q.** With `O=C(CC1(c2ccc(F)cc2)C2CC3CC(C2)CC1C3)N1CC[C@H](O)C1` (single isomer, unassigned) [Example 302] as the compound, how does the IC50 read?
**A.** The IC50 was 2.4 nM.

**Q.** Which IC50 does the source give for `O=C(O)C1CN(C(=O)C2CN(C(=O)CC3(Cc4ccccc4)C4CC5CC(C4)CC3C5)C2)C1` (centres unmarked) [Example 106] here?
**A.** Its IC50 is 457 nM.

**Q.** For `CNC(=O)OC1CN(C(=O)C[C@]2(c3ccc(F)cc3)C3CC4CC2C[C@](C(N)=O)(C4)C3)C1` [Example 32], which IC50 is on record?
**A.** The IC50 was 21 nM.

**Q.** Which IC50 does the source give for `O=C(O)COC1(c2ccc(F)cc2)C2CC3CC(C2)CC1C3` (centres unmarked) [Example 8] here?
**A.** Its IC50 is 633 nM.

**Q.** Which IC50 does the source give for `CNC(=O)OC1CN(C(=O)C2(Cc3ccc(Cl)cc3)C3CC4CC(C3)CC2C4)C1` (centres unmarked) [Example 240] here?
**A.** Its IC50 is 67 nM.

**Q.** Which IC50 does the source give for `C=C1CC2CCC(C1)C2(CC(=O)O)c1ccc(F)cc1` (centres unmarked) [Example 134] here?
**A.** The IC50 was 30 nM.

**Q.** For `O=C(O)C(C(=O)N1CC(O)C1)C1(c2ccc(F)cc2)C2CC3CC(C2)CC1C3` (centres unmarked) [Example 190], which IC50 is on record?
**A.** The IC50 was 9120 nM.

**Q.** Which IC50 does the source give for `C=CCO[C@]12CC3CC(C1)[C@](CC(=O)N1CC(O)C1)(c1ccc(F)cc1)C(C3)C2` [Example 98] here?
**A.** Its IC50 is 1.6 nM.

**Q.** Which IC50 does the source give for `CNC(=O)OC1CN(C(=O)CC2(c3ccc(F)cc3)C3CC4CC2CC(C3)O4)C1` (centres unmarked) [Example 236] here?
**A.** Its IC50 is 274 nM.

**Q.** Which IC50 does the source give for `O=C(CC1(c2ccccc2)C2CC3CC1CC(C2)C3O)N1CC(CO)C1` (single isomer, unassigned) [Example 265] here?
**A.** Its IC50 is 6.1 nM.

**Q.** Which IC50 does the source give for `O=C(CC1(c2ccccc2)C2CC3CC1CC(C2)C3O)N1CCC[C@H](O)C1` (single isomer, unassigned) [Example 279] here?
**A.** Its IC50 is 260 nM.

**Q.** With `CNC(=O)NC1CN(C(=O)CC2(c3ccccc3)C3CC4CC2CC(C3)C4O)C1` (centres unmarked) [Example 212] as the compound, how does the IC50 read?
**A.** The IC50 was 127 nM.

**Q.** Which IC50 does the source give for `O=C(N1CC(O)C1)C1(Cc2ccccc2Cl)C2CC3CC(C2)CC1C3` (centres unmarked) [Example 37] here?
**A.** The IC50 was 15 nM.

**Q.** With `O=C(C[C@]1(c2ccc(F)cc2)C2CC3CC1C[C@@](C(=O)O)(C3)C2)N1CC(O)C1` [Example 181] as the compound, how does the IC50 read?
**A.** Its IC50 is 128 nM.

**Q.** Which IC50 does the source give for `O=C(CC1(c2ccccc2)C2CC3CC1CC(C2)C3O)N1CCSC1` (centres unmarked) [Example 247] here?
**A.** The IC50 was 3 nM.

**Q.** For `CC(C)(O)CNC(=O)OC1CN(C(=O)CC2(c3ccccc3)C3CC4CC2CC(C3)C4O)C1` (centres unmarked) [Example 243], which IC50 is on record?
**A.** The IC50 was 16 nM.

**Q.** Which IC50 does the source give for `CS(=O)(=O)NC(=O)CC1(c2ccc(F)cc2)C2CC3CC(C2)CC1C3` (centres unmarked) [Example 22] here?
**A.** The IC50 was 159 nM.

**Q.** With `O=C(C[C@]1(Cc2ccccc2)C2CC3CC1C[C@@](O)(C3)C2)N1CC(O)C1` [Example 122] as the compound, how does the IC50 read?
**A.** Its IC50 is 253 nM.

**Q.** For `CS(=O)(=O)NC(=O)C1CN(C(=O)CC2(c3ccccc3)C3CC4CC2CC(C3)C4O)C1` (centres unmarked) [Example 250], which IC50 is on record?
**A.** The IC50 was 1720 nM.

**Q.** Which IC50 does the source give for `O=C(O)C1(Cc2cccc(F)c2)C2CC3CC(C2)CC1C3` (centres unmarked) [Example 132] here?
**A.** Its IC50 is 15 nM.

**Q.** For `N#Cc1ccc(OC2CN(C(=O)CC3(c4ccc(F)cc4)C4CC5CC(C4)CC3C5)C2)nc1` (centres unmarked) [Example 182], which IC50 is on record?
**A.** The IC50 was 2.4 nM.

**Q.** With `O=C(C[C@]1(Cc2ccccc2Cl)C2CC3CC1C[C@](O)(C3)C2)N1CC(O)C1` [Example 167] as the compound, how does the IC50 read?
**A.** Its IC50 is 20 nM.

**Q.** For `O=C(O)CC1(Cc2ccccc2)C2CCCC1CCC2` (centres unmarked) [Example 49], which IC50 is on record?
**A.** Its IC50 is 97 nM.

**Q.** With `O=C(O)COC1CN(C(=O)CC2(c3ccc(F)cc3)C3CC4CC(C3)CC2C4)C1` (centres unmarked) [Example 117] as the compound, how does the IC50 read?
**A.** Its IC50 is 90 nM.

**Q.** Which IC50 does the source give for `CCN(CC)C(=O)CC1(c2ccc(F)cc2)C2CC3CC1CC(F)(C3)C2` (centres unmarked) [Example 307] here?
**A.** Its IC50 is 383 nM.

**Q.** For `COC(=O)NC1CN(C(=O)C[C@]2(c3ccc(F)cc3)C3CC4CC2C[C@](C(N)=O)(C4)C3)C1` [Example 210], which IC50 is on record?
**A.** Its IC50 is 316 nM.

**Q.** With `COC(=O)C1CN1C(=O)CC1(c2ccc(F)cc2)C2CC3CC(C2)CC1C3` (centres unmarked) [Example 79] as the compound, how does the IC50 read?
**A.** Its IC50 is 81 nM.

**Q.** With `Cc1noc(C)c1CC1(C(=O)O)C2CC3CC(C2)CC1C3` (centres unmarked) [Example 140] as the compound, how does the IC50 read?
**A.** Its IC50 is 651 nM.

**Q.** With `CC(C)c1ccc(C2(CC(=O)N3CC(O)C3)C3CC4CC2CC(C3)C4O)cc1` (centres unmarked) [Example 292] as the compound, how does the IC50 read?
**A.** The IC50 was 2.8 nM.

**Q.** With `CC1(CC(=O)N2CC(NC(=O)OCc3ccccc3)C2)C2CC3CC1CC(C2)C3O` (centres unmarked) [Example 183] as the compound, how does the IC50 read?
**A.** Its IC50 is 182 nM.

**Q.** Which IC50 does the source give for `O=C(O)C1(CCc2ccccc2)C2CC3CC(C2)CC1C3` (centres unmarked) [Example 136] here?
**A.** The IC50 was 1150 nM.

**Q.** Which IC50 does the source give for `CNC(=O)OC1CN(C(=O)CC2(c3ccccc3)C3CC4CC2CC(C3)C4O)C1` (single isomer, unassigned) [Example 242] here?
**A.** The IC50 was 8.8 nM.

**Q.** For `O=C(CC1(c2ccc(F)cc2)C2CC3CC(C2)CC1C3)N1CCC(OCc2ccccc2)C1` (centres unmarked) [Example 303], which IC50 is on record?
**A.** Its IC50 is 4.7 nM.

**Q.** With `O=C(CC1(c2ccccc2)C2CC3CC1CC(C2)C3O)N1CCC[C@@H](O)C1` (single isomer, unassigned) [Example 281] as the compound, how does the IC50 read?
**A.** The IC50 was 175 nM.

**Q.** Which IC50 does the source give for `CC(C(=O)N1CC(O)C1)C1(c2ccc(F)cc2)C2CC3CC(C2)CC1C3` (centres unmarked) [Example 188] here?
**A.** Its IC50 is 121 nM.

**Q.** For `O=C(O)C1(Cc2coc(-c3ccc(F)cc3)n2)C2CC3CC(C2)CC1C3` (centres unmarked) [Example 55], which IC50 is on record?
**A.** Its IC50 is 2980 nM.

Same assay, conditions: read-out: h HSD1 IC50; human microsomes, 40 nM 3H-cortisone, 4 hrs at room temperature

**Q.** Which IC50 does the source give for `CS(=O)(=O)NC1CN(C(=O)CC2(Cc3ccccc3)C3CC4CC2CC(C3)C4O)C1` (centres unmarked) [Example 195] here?
**A.** The IC50 was 105 nM.

**Q.** With `Cc1nnc(C2CN(C(=O)CC3(c4ccccc4)C4CC5CC3CC(C4)C5O)C2)o1` (centres unmarked) [Example 34] as the compound, how does the IC50 read?
**A.** The IC50 was 196 nM.

**Q.** Which IC50 does the source give for `CC1(CC(=O)N2CC(O)(c3ccc(F)cc3)C2)C2CC3CC1CC(C2)C3O` (centres unmarked) [Example 213] here?
**A.** Its IC50 is 44 nM.

**Q.** For `O=C(CC1(c2ccc(F)cc2)C2CCCC1CC(O)C2)N1CC(O)C1` (centres unmarked) [Example 23, 2-(9-(4-Fluorophenyl)-3-hydroxybicyclo[3.3.1]nonan-9-yl)-1-(3-hydroxyazetidin-1-yl)ethanone], which IC50 is on record?
**A.** The IC50 was 8.3 nM.

**Q.** With `Cc1nnc(COC2CN(C(=O)CC3(c4ccccc4)C4CC5CC3CC(C4)C5O)C2)o1` (centres unmarked) [Example 36] as the compound, how does the IC50 read?
**A.** The IC50 was 14 nM.

**Q.** Which IC50 does the source give for `Cn1nnc(C2CN(C(=O)CC3(c4ccccc4)C4CC5CC3CC(C4)C5O)C2)n1` (centres unmarked) [Example 28] here?
**A.** Its IC50 is 10 nM.

**Q.** For `CNC(=O)OCC1CN(C(=O)CC2(c3ccccc3)C3CC4CC2CC(C3)C4O)C1` (centres unmarked) [Example 216], which IC50 is on record?
**A.** Its IC50 is 5.1 nM.

Tested on: hepatic glucose production
Assay: not given
Settings: patients with type 2 diabetes, seven days, versus placebo; cited from earlier work

**Q.** For `CC1(C)[C@@H](OC(=O)CCC(=O)O)CC[C@]2(C)[C@H]3C(=O)C=C4[C@@H]5C[C@@](C)(C(=O)O)CC[C@]5(C)CC[C@@]4(C)[C@]3(C)CC[C@@H]12` [carbenoxolone], which hepatic glucose production is on record?
**A.** Its hepatic glucose production is “decrease in hepatic glucose production”.

Target: T1, 11beta-HSD1 (Mus musculus, UniProt P50172)
T1 construct: from tissue; host or cells: whole animal: diet induced obese (DIO) mice, Jackson Laboratory
T1 sequence (P50172 whole entry): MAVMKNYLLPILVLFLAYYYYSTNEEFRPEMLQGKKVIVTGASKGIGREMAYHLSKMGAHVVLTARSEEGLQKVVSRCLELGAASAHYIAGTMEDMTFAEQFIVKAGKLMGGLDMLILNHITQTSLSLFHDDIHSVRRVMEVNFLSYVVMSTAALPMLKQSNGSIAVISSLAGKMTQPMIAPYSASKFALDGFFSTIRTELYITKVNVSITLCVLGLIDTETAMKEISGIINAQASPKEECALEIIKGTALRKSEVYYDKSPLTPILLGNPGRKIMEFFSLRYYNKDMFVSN
Assay: In vivo inhibition of 11beta-HSD1: DHC administration to DIO mice, plasma corticosterone AUC
Settings: 30 mpK, oral, DHC 10 mg/kg 60 minutes after compound
Procedure: Studies were conducted utilizing diet induced obese (DIO) mice obtained from Jackson Laboratory (ME, USA). These mice were fed a 60% fat diet (Research Diets D12492) soon after weaning and kept on this diet for 24 weeks. These mice were individually housed. All mice were housed under controlled temperature (23° C.) and lighting (12 hours of light between 6 am to 6 pm, 12 hours of dark) with free access to water. The animals continued on this diet and were utilized for experimentation at 30 to 32 weeks of age, at which time these mice weighed 45 to 55 grams.
The basic model of 11-dehydrocorticosterone (DHC) administration to mice to produce corticosterone has been reported in the literature for clinical and preclinical evaluation of the activity of 11 β HSD. Essentially DHC (Steraloids INC, Newport R.I.), was suspended in the vehicle at a concentration of 10 mg/kg in a volume of 7.5 ml/kg of mouse body weight. […] Plasma was separated and collected and immediately frozen at −20° C. until corticosterone analysis could be assessed.
Plasma Corticosterone was measured using an EIA (IDS AC-14F1). Samples were measured at (1:2) for the −30 (or −60 minute) and 0 time point and (1:10) for the 30, 60 and 120 minutes time points. AUC was calculated using Graphpad and the zero timepoint was used as the baseline. One way ANOVA was calculated using Sigmastat. […]

**Q.** Which “% inhibition” value does the source give for `O=C(CC1(c2ccc(F)cc2)C2CC3CC1CC(C2)C3O)N1CC(O)C1` (centres unmarked) [Example 217] here?
**A.** The value was 67%.

**Q.** With `CNC(=O)OC1CN(C(=O)CC2(c3ccccc3)C3CC4CC2CC(C3)C4O)C1` (single isomer, unassigned) [Example 242] as the compound, how does the “% inhibition” value read?
**A.** The value was 65%.
